According to PubChem BioAssay AID328 (DTP/NCI, 2004):
Values joined by “and” are separate entries in the source; they are usually repeats but may differ in a detail not shown here. Identical values can stand only once. Inconclusive results and toxic doses are left out. How the source made its calls: active means survival T/C of 150% or more; inactive means T/C below 125% in these data.

Tested on: BDF1 mice, P388 leukemia ip, median survival T/C
Experiment: NCI In Vivo Anticancer Drug Screen. Data for tumor model P388 Leukemia (intraperitoneal) in B6D2F1 (BDF1) mice
Conditions: endpoint: median survival time, higher = longer survival
Procedure, shortened: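 Each value expresses how treatment altered survival: treated-mouse outcome over vehicle-mouse outcome, both groups bearing the transplanted tumour.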

Measured: T/C

C[C@]12C=CC(=O)C=C1CC[C@@H]1[C@@H]2C(=O)C[C@@]2(C)[C@H]1CC[C@]2(O)C(=O)CO
inactive: dose: 0.8 mg/kg/injection, schedule: Q01DX009 (ip), vehicle: carboxymethylcellulose (CMC) 90 % of control | dose: 1.6 mg/kg/injection, schedule: Q01DX009 (ip), vehicle: carboxymethylcellulose (CMC) 99 % of control | dose: 3.12 mg/kg/injection, schedule: Q01DX009 (ip), vehicle: carboxymethylcellulose (CMC) 99 % of control | dose: 6.25 mg/kg/injection, schedule: Q01DX009 (ip), vehicle: carboxymethylcellulose (CMC) 89 % of control and 103 % of control | dose: 6.25 mg/kg/injection, schedule: Q03HX008 (ip), vehicle: saline 107 % of control | dose: 6.25 mg/kg/injection, schedule: Q03HX016 (ip), vehicle: saline 100 % of control | dose: 6.25 mg/kg/injection, schedule: Q03HX024 (ip), vehicle: saline 100 % of control | dose: 12.5 mg/kg/injection, schedule: Q01DX009 (ip), vehicle: carboxymethylcellulose (CMC) 87 % of control and 89 % of control | dose: 12.5 mg/kg/injection, schedule: Q03HX008 (ip), vehicle: saline 100 % of control | dose: 12.5 mg/kg/injection, schedule: Q03HX016 (ip), vehicle: saline 100 % of control | dose: 12.5 mg/kg/injection, schedule: Q03HX024 (ip), vehicle: saline 87 % of control | dose: 25.0 mg/kg/injection, schedule: Q03HX008 (ip), vehicle: saline 100 % of control | dose: 25.0 mg/kg/injection, schedule: Q03HX016 (ip), vehicle: saline 100 % of control | dose: 25.0 mg/kg/injection, schedule: Q03HX024 (ip), vehicle: saline 87 % of control | dose: 44.0 mg/kg/injection, schedule: Q04DX003 (sc), vehicle: Klucel (hydroxypropylcellulose) (HPC) 113 % of control | dose: 50.0 mg/kg/injection, schedule: Q01DX001 (ip), vehicle: saline 107 % of control | dose: 50.0 mg/kg/injection, schedule: Q01DX009 (ip), vehicle: carboxymethylcellulose (CMC) 90 % of control and 93 % of control | dose: 50.0 mg/kg/injection, schedule: Q03HX008 (ip), vehicle: saline 100 % of control | dose: 50.0 mg/kg/injection, schedule: Q03HX016 (ip), vehicle: saline 107 % of control | dose: 50.0 mg/kg/injection, schedule: Q03HX024 (ip), vehicle: saline 87 % of control | dose: 50.0 mg/kg/injection, schedule: Q04DX003 (ip), vehicle: saline 93 % of control | dose: 50.0 mg/kg/injection, schedule: Q08DX002 (ip), vehicle: saline 87 % of control | dose: 67.0 mg/kg/injection, schedule: Q04DX003 (sc), vehicle: Klucel (hydroxypropylcellulose) (HPC) 114 % of control | dose: 100.0 mg/kg/injection, schedule: Q01DX001 (ip), vehicle: saline 114 % of control | dose: 100.0 mg/kg/injection, schedule: Q03HX008 (ip), vehicle: saline 100 % of control | dose: 100.0 mg/kg/injection, schedule: Q03HX016 (ip), vehicle: saline 114 % of control | dose: 100.0 mg/kg/injection, schedule: Q03HX024 (ip), vehicle: saline 87 % of control | dose: 100.0 mg/kg/injection, schedule: Q04DX003 (ip), vehicle: saline 106 % of control | dose: 100.0 mg/kg/injection, schedule: Q04DX003 (sc), vehicle: Klucel (hydroxypropylcellulose) (HPC) 113 % of control | dose: 100.0 mg/kg/injection, schedule: Q08DX002 (ip), vehicle: saline 87 % of control | dose: 200.0 mg/kg/injection, schedule: Q01DX001 (ip), vehicle: saline 114 % of control | dose: 200.0 mg/kg/injection, schedule: Q04DX003 (ip), vehicle: saline 100 % of control | dose: 200.0 mg/kg/injection, schedule: Q08DX002 (ip), vehicle: saline 100 % of control | dose: 400.0 mg/kg/injection, schedule: Q01DX001 (ip), vehicle: saline 121 % of control | dose: 400.0 mg/kg/injection, schedule: Q04DX003 (ip), vehicle: saline 106 % of control | dose: 400.0 mg/kg/injection, schedule: Q08DX002 (ip), vehicle: saline 87 % of control | dose: 800.0 mg/kg/injection, schedule: Q01DX001 (ip), vehicle: saline 121 % of control | dose: 800.0 mg/kg/injection, schedule: Q04DX003 (ip), vehicle: saline 106 % of control | dose: 800.0 mg/kg/injection, schedule: Q08DX002 (ip), vehicle: saline 100 % of control

O=[N+]([O-])c1ccc(N2CC2)c2c1no[n+]2[O-]
inactive: dose: 15.0 mg/kg/injection, schedule: Q04DX003 (ip), vehicle: saline with Tween-80 109 % of control

CC(C)NC(=O)c1ccccc1-[s+]1c2ccccc2c(=O)n1C(C)C (stereo not drawn)
inactive: dose: 100.0 mg/kg/injection, schedule: Q04DX003 (ip), vehicle: saline with Tween-80 94 % of control | dose: 200.0 mg/kg/injection, schedule: Q04DX003 (ip), vehicle: saline with Tween-80 96 % of control | dose: 400.0 mg/kg/injection, schedule: Q04DX003 (ip), vehicle: saline with Tween-80 96 % of control

CCOc1ccc(N2C(=O)CC(Sc3ccccc3N)C2=O)cc1 (stereo not drawn)
inactive: dose: 100.0 mg/kg/injection, schedule: Q01DX001 (ip), vehicle: Klucel (hydroxypropylcellulose) (HPC) 105 % of control | dose: 100.0 mg/kg/injection, schedule: Q04DX003 (ip), vehicle: Klucel (hydroxypropylcellulose) (HPC) 100 % of control | dose: 200.0 mg/kg/injection, schedule: Q01DX001 (ip), vehicle: Klucel (hydroxypropylcellulose) (HPC) 100 % of control | dose: 200.0 mg/kg/injection, schedule: Q04DX003 (ip), vehicle: Klucel (hydroxypropylcellulose) (HPC) 90 % of control | dose: 400.0 mg/kg/injection, schedule: Q01DX001 (ip), vehicle: Klucel (hydroxypropylcellulose) (HPC) 100 % of control | dose: 400.0 mg/kg/injection, schedule: Q04DX003 (ip), vehicle: Klucel (hydroxypropylcellulose) (HPC) 100 % of control

O=[N+]([O-])/C=C/c1c(Cl)cccc1Cl
inactive: dose: 50.0 mg/kg/injection, schedule: Q04DX003 (ip), vehicle: other 122 % of control

CCc1ccccc1OS(=O)(=O)c1ccc([N+](=O)[O-])cc1
inactive: dose: 100.0 mg/kg/injection, schedule: Q01DX009 (ip), vehicle: saline sonified 88 % of control | dose: 200.0 mg/kg/injection, schedule: Q01DX009 (ip), vehicle: saline sonified 88 % of control | dose: 400.0 mg/kg/injection, schedule: Q01DX009 (ip), vehicle: saline sonified 94 % of control
